Measured values published in patent publication US6599932B1, “Alpha, beta-unsaturated sulfones for treating proliferative disorders” (Temple University-Of The Commonwealth System of Higher …, priority 2000, dated 2003).

Tests used:
Assay type in all cases: cell-based
Design in all cases: dose or concentration left out as unconfirmed
[1] = system: prostate tumor cell line DU-145; assay: Viability assay, Trypan blue exclusion, prostate tumor cell line DU-145; settings: for percent cell death (% Death), DU145: 96 hours; for cytotoxicity: Homo sapiens, DU-145, 96 hours, read-out: percent cell death (% Death), DU145
Protocol: (§1) The effect of the sulfones on normal fibroblasts and on tumor cells of prostate, colon, lung and breast origin was examined utilizing the following cell lines: prostate tumor cell line DU-145; colorectal carcinoma cell line DLD-1; non-small cell lung carcinoma cell line H157; and breast tumor cell line BT-20. BT-20 is an estrogen-unresponsive cell line. NIH/3T3 and HFL are normal murine and human fibroblasts, respectively. BT-20, DLD-1 and H157 were grown in Dulbecco's modified Eagle's medium (DMEM) containing 10% fetal bovine serum supplemented with penicillin and streptomycin. DU145 was cultured in RPMI with 10% fetal bovine serum containing penicillin and streptomycin. NIH3T3 and HFL cells were grown in DMEM containing 10% calf serum supplemented with penicillin and streptomycin. All cell cultures were maintained at 37° C. in a humidified atmosphere of 5% CO2.
(§2) Cells were treated with test compound […] concentration and cell viability was determined after 96 hours by the Trypan blue exclusion method. Activity for each compound is reported as a range of cell induced death (% Death) with the lowest activity in the range of 5-10%.

[2] = system: breast tumor cell line BT-20; assay: Viability assay, Trypan blue exclusion, breast tumor cell line BT-20; settings: for percent cell death (% Death), BT20: 96 hours; for cytotoxicity: Homo sapiens, BT-20, 96 hours, read-out: percent cell death (% Death), BT20
Protocol: as §1, §2

[3] = system: colorectal carcinoma cell line DLD-1; assay: Viability assay, Trypan blue exclusion, colorectal carcinoma cell line DLD-1; settings: for percent cell death (% Death), DLD-1: 96 hours; for cytotoxicity: Homo sapiens, DLD-1, 96 hours, read-out: percent cell death (% Death), DLD-1
Protocol: as §1, §2

[4] = system: non-small cell lung carcinoma cell line H157; assay: Viability assay, Trypan blue exclusion, non-small cell lung carcinoma cell line H157; settings: for percent cell death (% Death), H157: 96 hours; for cytotoxicity: Homo sapiens, NCI-H157, 96 hours, read-out: percent cell death (% Death), H157
Protocol: as §1, §2

| Compound | percent cell death (% Death), DU145 [1] | percent cell death (% Death), BT20 [2] | percent cell death (% Death), DLD-1 [3] | percent cell death (% Death), H157 [4] | cytotoxicity [1] [%] | cytotoxicity [2] [%] | cytotoxicity [3] [%] | cytotoxicity [4] [%] |
| --- | --- | --- | --- | --- | --- | --- | --- | --- |
| COc1ccc(CS(=O)(=O)/C=C/C2=CS(=O)(=O)C=C2)cc1 [Example 36, (E)-3-Thiophene-1,1-dioxoethenyl-4-methoxybenzylsulfone] | + ((+)=5-10%) | + ((+)=5-10%) | + ((+)=5-10%) | + ((+)=5-10%) |  |  |  |  |
| O=S1(=O)C=CC(/C=C/S(=O)(=O)Cc2ccc(Cl)cc2Cl)=C1 [Example 37, (E)-3-Thiophene-1,1-dioxoethenyl-2,4-dichlorobenzylsulfone] | ++ ((++)=10-15%) | ++ ((++)=10-15%) | ++ ((++)=10-15%) | ++ ((++)=10-15%) |  |  |  |  |
| O=S(=O)(/C=C/c1ccoc1)Cc1ccc(F)cc1 [Example 41, (E)-3-Furanethenyl-4-fluorobenzylsulfone] |  |  |  |  | 5 to 10 | 5 to 10 | 5 to 10 | 5 to 10 |
| O=S(=O)(/C=C/c1ccoc1)Cc1ccc(Cl)cc1 [Example 42, (E)-3-Furanethenyl-4-chlorobenzylsulfone] |  |  |  |  | > 80 | > 80 | > 80 | > 80 |
| O=S(=O)(/C=C/c1ccoc1)Cc1ccc(Br)cc1 [Example 43, (E)-3-Furanethenyl-4-bromobenzylsulfone] |  |  |  |  | > 80 | > 80 | > 80 | > 80 |
| O=S(=O)(/C=C/c1ccoc1)Cc1ccc(I)cc1 [Example 44, (E)-3-Furanethenyl-4-iodobenzylsulfone] |  |  |  |  | > 80 | > 80 | > 80 | > 80 |
| COc1ccc(CS(=O)(=O)/C=C/c2ccoc2)cc1 [Example 46, (E)-3-Furanethenyl-4-methoxybenzylsulfone] |  |  |  |  | > 80 | > 80 | > 80 | > 80 |
| O=S(=O)(/C=C/c1ccoc1)Cc1ccc(C(F)(F)F)cc1 [Example 47, (E)-3-Furanethenyl-4-trifluoromethylbenzylsulfone] | ++++ ((++++)=50-60%) | ++++ ((++++)=50-60%) | ++++ ((++++)=50-60%) | ++++ ((++++)=50-60%) |  |  |  |  |
| O=S(=O)(/C=C/c1ccoc1)Cc1ccc(Cl)cc1Cl [Example 48, (E)-3-Furanethenyl-2,4-dichlorobenzylsulfone] |  |  |  |  | > 80 | > 80 | > 80 | > 80 |
| O=S(=O)(/C=C/c1ccoc1)Cc1ccc(Cl)c(Cl)c1 [Example 49, (E)-3-Furanethenyl-3,4-dichlorobenzylsulfone] |  |  |  |  | > 80 | 50 to 60 | 50 to 60 | 50 to 60 |
| N#Cc1ccc(CS(=O)(=O)/C=C/c2ccoc2)cc1 [Example 50, (E)-3-Furanethenyl-4-cyanobenzylsulfone] |  |  |  |  | 5 to 10 | 5 to 10 | 5 to 10 | 5 to 10 |
| O=[N+]([O-])c1ccc(CS(=O)(=O)/C=C/c2ccoc2)cc1 [Example 51, (E)-3-Furanethenyl-4-nitrobenzylsulfone] |  |  |  |  | 5 to 10 | 5 to 10 | 5 to 10 | 5 to 10 |
| O=[N+]([O-])c1cc(/C=C/S(=O)(=O)Cc2ccc(Cl)cc2)cs1 [Example 55, (E)-2-Nitro-4-thiopheneethenyl-4-chlorobenzylsulfone] |  |  |  |  | 10 to 15 | 5 to 10 | 50 to 60 | 5 to 10 |
| O=[N+]([O-])c1cc(/C=C/S(=O)(=O)Cc2ccc(I)cc2)cs1 [Example 56, (E)-2-Nitro-4-thiopheneethenyl-4-iodobenzylsulfone] |  |  |  |  | 5 to 10 | 5 to 10 | 5 to 10 | 5 to 10 |
| O=[N+]([O-])c1cc(/C=C/S(=O)(=O)Cc2ccc(Cl)cc2Cl)cs1 [Example 57, (E)-2-Nitro-4-thiopheneethenyl-2,4-dichlorobenzylsulfone] |  |  |  |  | 10 to 15 | 5 to 10 | 10 to 15 | 5 to 10 |
| COc1ccc(CS(=O)(=O)/C=C/c2csc([N+](=O)[O-])c2)cc1 [Example 58, (E)-2-Nitro-4-thiopheneethenyl-4-methoxybenzylsulfone] |  |  |  |  | 50 to 60 | 40 to 50 | > 80 | > 80 |
| O=S(=O)(/C=C/c1cccc2ccccc12)Cc1ccc(F)cc1 [Example 62, (E)-1-Naphthaleneethenyl-4-fluorobenzylsulfone] |  |  |  |  | 5 to 10 | 5 to 10 | 5 to 10 | 5 to 10 |
| O=S(=O)(/C=C/c1ccc2ccccc2c1)Cc1ccc(F)cc1 [Example 63, (E)-2-Naphthaleneethenyl-4-fluorobenzylsulfone] |  |  |  |  | 5 to 10 | 5 to 10 | 5 to 10 | 5 to 10 |
| O=S(=O)(/C=C/c1cccc2ccccc12)Cc1ccc(Cl)cc1 [Example 64, (E)-1-Naphthaleneethenyl-4-chlorobenzylsulfone] |  |  |  |  | 10 to 15 | 10 to 15 | 10 to 15 | 10 to 15 |
| O=S(=O)(/C=C/c1ccc2ccccc2c1)Cc1ccc(Cl)cc1 [Example 65, (E)-2-Naphthaleneethenyl-4-chlorobenzylsulfone] |  |  |  |  | 5 to 10 | 5 to 10 | 5 to 10 | 5 to 10 |
| O=S(=O)(/C=C/c1cccc2ccccc12)Cc1ccc(Br)cc1 [Example 66, (E)-1-Naphthaleneethenyl-4-bromobenzylsulfone] |  |  |  |  | 10 to 15 | 10 to 15 | 10 to 15 | 10 to 15 |
| O=S(=O)(/C=C/c1ccc2ccccc2c1)Cc1ccc(Br)cc1 [Example 67, (E)-2-Naphthaleneethenyl-4-bromobenzylsulfone] |  |  |  |  | 5 to 10 | 5 to 10 | 5 to 10 | 5 to 10 |
| O=S(=O)(/C=C/c1ccc(F)cc1)Cc1cccc2ccccc12 [Example 68, (E)-4-Fluorostyryl-1-(naphthylmethyl)sulfone] |  |  |  |  | 5 to 10 | 5 to 10 | 5 to 10 | 5 to 10 |
| O=S(=O)(/C=C/c1ccc(Cl)cc1)Cc1cccc2ccccc12 [Example 69, (E)-4-Chlorostyryl-1-(naphthylmethyl)sulfone] |  |  |  |  | 5 to 10 | 5 to 10 | 5 to 10 | 5 to 10 |
| O=S(=O)(/C=C/c1ccc(Br)cc1)Cc1cccc2ccccc12 [Example 70, (E)-4-Bromostyryl-1-(naphthylmethyl)sulfone] |  |  |  |  | 5 to 10 | 5 to 10 | 5 to 10 | 5 to 10 |
| O=[N+]([O-])c1ccc(/C=C/S(=O)(=O)Cc2cccc3ccccc23)cc1 [Example 73, (E)-4-Nitrostyryl-1-(naphthylmethyl)sulfone] |  |  |  |  | 5 to 10 | 5 to 10 | 5 to 10 | 10 to 15 |
| O=S(=O)(/C=C/c1c2ccccc2cc2ccccc12)Cc1ccc(F)cc1 [Example 74, (E)-9-Anthraceneethenyl-4-fluorobenzylsulfone] |  |  |  |  | 40 to 50 | 50 to 60 | 50 to 60 | > 80 |
| O=S(=O)(/C=C/c1c2ccccc2cc2ccccc12)Cc1ccc(Br)cc1 [Example 76, (E)-9-Anthraceneethenyl-4-bromobenzylsulfone] |  |  |  |  | 50 to 60 | 50 to 60 | 40 to 50 | 40 to 50 |
